# Experimental data as given in patent publication US9540314B2, “N-cycloalkyl-N-[(cycloalkenylphenyl)methylene]-(thio) carboxamide derivatives” (BAYER INTELLECTUAL PROPERTY GMBH, priority 2012, dated 2017).
# How the values were obtained:
# [1] = log P by HPLC on a reversed-phase column (C 18), EEC Directive 79/831 Annex V.A8; format: physicochemical; conditions: Table 1, HPLC C 18, 40° C., 0.1% aqueous formic acid and acetonitrile, several values = mixture of 2 or more isomers; for chromatographic logP: reversed-phase HPLC column (C 18)
# Method: In table 1, the log P values were determined in accordance with EEC Directive 79/831 Annex V.A8 by HPLC (High Performance Liquid Chromatography) on a reversed-phase column (C 18), using the method described below:
# Temperature: 40° C.; Mobile phases: 0.1% aqueous formic acid and acetonitrile; linear gradient from 10% acetonitrile to 90% acetonitrile.
# Calibration was carried out using unbranched alkan-2-ones (comprising 3 to 16 carbon atoms) with known log P values (determination of the log P values by the retention times using linear interpolation between two successive alkanones). lambda-max-values were determined using UV-spectra from 200 nm to 400 nm and the peak values of the chromatographic signals.
# Sphaerotheca fuliginea = test: In vivo preventive test on Sphaerotheca fuliginea (powdery mildew on cucurbits); conditions: 500 ppm, gherkin plants, grading 12 days after contamination
# Method: (§1) The active ingredients tested are prepared by homogenization in a mixture of acetone/tween/DMSO and then diluted with water to obtain the desired active material concentration.
# Gherkin plants (“Vert petit de Paris” variety), sown in starter cups on a 50/50 peat soil-pozzolana substrate and grown at 24° C., are treated at the Z11 cotyledon stage by spraying with the active ingredient prepared as described above. Plants, used as controls, are treated with the mixture of acetone/tween/DMSO/water not containing the active material.
# After 24 hours, the plants are contaminated by spraying the cotyledons with an aqueous suspension of Sphaerotheca fuliginea spores (100 000 spores per mL). The spores are collected from infected plants. The contaminated gherkin plants are incubated at about 20° C. and at 70-80% relative humidity.
# (§2) Grading (% of efficacy) is carried out 12 days after the contamination, in comparison with the control plants.
# Under these conditions, good (at least 70%) to total protection is observed at a dose of 500 ppm of active ingredient with the following compounds from table A: […]
# Alternaria brassicae = test: In vivo preventive test on Alternaria brassicae (leaf spot on radish); conditions: radish plants
# Method: (§3) The active ingredients tested are prepared by homogenization in a mixture of acetone/tween/DMSO, and then diluted with water to obtain the desired active material concentration.
# Radish plants (“Pernod Clair” variety), sown in starter cups on a 50/50 peat soil pozzolana substrate and grown at 17° C., are treated at the cotyledon stage by spraying with the active ingredient prepared as described above. Plants, used as controls, are treated with the mixture of acetone/tween/DMSO/water not containing the active material.
# After 24 hours, the plants are contaminated by spraying the cotyledons with an aqueous suspension of Alternaria brassicae spores (50 000 spores per mL). The spores are collected from a 15-day-old culture.
# The contaminated radish plants are incubated at 20° C. and at 100% relative humidity.
# Grading (% of efficacy) is carried out 6 days after the contamination, in comparison with the control plants.
# Under these conditions, high (at least 80%) to excellent (at least 90%) protection is observed at a dose of 500 ppm of active ingredient with the following compounds from table C1: […]
# Pyrenophora teres = test: In vivo preventive test on Pyrenophora teres (barley); conditions: barley plants, grading 14 days after contamination
# Method: as §3
# Barley plants (“Plaisant” variety), sown in starter cups on a 50/50 peat soil pozzolana substrate and grown at 22° C., are treated at the 1 leaf stage (10 cm height) by spraying with the active ingredient prepared as described above. Plants, used as controls, are treated with the mixture of acetone/tween/DMSO/water not containing the active material.
# After 24 hours, the plants are contaminated by spraying the leaves with an aqueous suspension of Pyrenophora teres spores (12 000 spores per mL). The spores are collected from a 12-day-old culture.
# The contaminated barley plants are incubated for 48 hours at 20° C. and at 100% relative humidity, and then for 12 days at 20° C. at 70-80% relative humidity.
# Grading (% of efficacy) is carried out 14 days after the contamination, in comparison with the control plants.
# Under these conditions, good (at least 70%) to total protection is observed at a dose of 500 ppm of active ingredient with the following compounds from table H1: […]
# Puccinia recondita = test: In vivo preventive test on Puccinia recondita (brown rust on wheat); conditions: 500 ppm of active ingredient; wheat plants, preventive spray; grading 12 days after contamination
# Method: as §3
# (§4) Wheat plants (“Scipion” variety), sown in starter cups on a 50/50 peat soil pozzolana substrate and grown at 22° C., are treated at the 1 leaf stage (10 cm height) by spraying with the active ingredient prepared as described above. Plants, used as controls, are treated with the mixture of acetone/tween/DMSO/water not containing the active material.
# (§5) After 24 hours, the plants are contaminated by spraying the leaves with an aqueous suspension of Puccinia recondita spores (100 000 spores per mL). The spores are collected from an infected plant and are suspended in water containing 2.5 mL/L of Tween 80 at 10%. The contaminated wheat plants are incubated for 24 hours at 20° C. and at 100% relative humidity, and then for 10 days at 20° C. and at 70-80% relative humidity.
# as §2
# Under these conditions, good (at least 70%) to total protection is observed at a dose of 500 ppm of active ingredient with the following compounds from table I: […]
# Septoria tritici = test: In vivo preventive test on Septoria tritici (wheat); conditions: 500 ppm of active ingredient; wheat plants, preventive spray; grading 24 days after contamination
# Method: as §3, §4
# After 24 hours, the plants are contaminated by spraying the leaves with an aqueous suspension of cryopreserved Septoria tritici spores (500 000 spores per mL). The contaminated wheat plants are incubated for 72 hours at 18° C. and at 100% relative humidity, and then for 21 days at 90% relative humidity.
# Grading (% of efficacy) is carried out 24 days after the contamination, in comparison with the control plants.
# Under these conditions, good (at least 70%) to total protection is observed at a dose of 500 ppm of active ingredient with the following compounds from table J: […]
# Botrytis cinerea = test: In vivo preventive test on Botrytis cinerea (grey mould), gherkin plants; conditions: 500 ppm of active ingredient, preventive spray, grading 4 to 5 days after contamination
# Method: as §1
# Gherkin plants (“Vert petit de Paris” variety), sown in starter cups on a 50/50 peat soil pozzolana substrate and grown at 24° C., are treated at the Z11 cotyledon stage by spraying with the active ingredient prepared as described above. Plants, used as controls, are treated with the mixture of acetone/tween/DMSO/water not containing the active material.
# After 24 hours, the plants are contaminated by spraying the cotyledons with an aqueous suspension of cryopreserved Botrytis cinerea spores (50 000 spores per mL). The spores are suspended in a nutrient solution composed of 10 g/L of PDB, 50 g/L of D-Fructose, 2 g/L of NH4NO3 and 1 g/L of KH2PO4. The contaminated gherkin plants are incubated at 17° C. and at 90% relative humidity.
# Grading (% of efficacy) is carried out 4 to 5 days after the contamination, in comparison with the control plants.
# Under these conditions, good (at least 70%) to total protection is observed at a dose of 500 ppm of active ingredient with the following compounds from table F: […]
# Uromyces appendiculatus = test: In vivo preventive test on Uromyces appendiculatus (bean rust); conditions: bean plants
# Method: as §3
# as §5, with “of Uromyces appendiculatus” for “of Puccinia recondita”, “spores (150” for “spores (100”, “from” for “from an”, “infected plants” for “infected plant”, “contaminated bean” for “contaminated wheat”
# Grading (% of efficacy) is carried out 11 days after the contamination, in comparison with the control plants.
# [2] = 500 ppm of active ingredient, preventive spray
# [3] = 500 ppm of active ingredient, preventive spray, grading 11 days after contamination (table K1)
# [4] = dose 100 ppm, comparison with saturated analogues (table K2)
# [5] = dose 500 ppm, comparison with saturated analogues (table K2)
Structure (SMILES),logP [1],Efficacy (Sphaerotheca fuliginea),"Efficacy (Alternaria brassicae; Table C1, 500 ppm, grading 6 days after contamination)","Efficacy (Alternaria brassicae; Table C2, dose 100 ppm, 6 days after contamination)","Efficacy (Alternaria brassicae; Table C2, dose 100 ppm, 6 days after contamination, listed as 1.32)","Efficacy (Alternaria brassicae; Table C2, dose 500 ppm, 6 days after contamination)","Efficacy (Alternaria brassicae; Table C2, dose 500 ppm, 6 days after contamination, listed as 1.32)",Efficacy (Pyrenophora teres; [2]),Efficacy (Puccinia recondita),Efficacy (Septoria tritici),Efficacy (Botrytis cinerea),Efficacy (Uromyces appendiculatus; [3]),"Efficacy (Pyrenophora teres; Table H2, 100 ppm, preventive)",Efficacy (Uromyces appendiculatus; [4]),Efficacy (Uromyces appendiculatus; [5]),chromatographic logP [1]
CC(c1ccccc1C1=CCCCC1)N(C(=O)c1c(C(F)F)nn(C)c1F)C1CC1 (racemic) [I.32],4.61,100%,98%,98%,at least 95%,98%,at least 95%,97%,98%,100%,–,–,–,–,–,–
CC1CC=C(c2ccc(Cl)cc2CN(C(=O)c2c(C(F)F)nn(C)c2F)C2CC2)CC1 (racemic) [I.46],5.36,100%,–,–,–,–,–,–,75%,86%,–,–,–,–,–,–
Cn1cc(C(=O)N(Cc2ccccc2C2=CCCC2)C2CC2)c(C(F)F)n1 [I.2],3.63,94%,–,–,–,–,–,–,94%,88%,100%,100%,–,–,–,–
Cn1nc(C(F)F)c(C(=O)N(Cc2ccccc2C2=CCCC2)C2CC2)c1F [I.3],4.06,100%,–,–,–,–,–,–,98%,98%,–,100%,86%,99%,100%,–
Cn1nc(C(F)F)c(C(=O)N(Cc2ccccc2C2=CCCC2)C2CC2)c1Cl [I.4],4.26,–,–,–,–,–,–,–,100%,–,77%,99%,–,–,–,–
Cn1nc(C(F)F)c(C(=O)N(Cc2cc(C3=CCCC3)ccc2C2=CCCC2)C2CC2)c1F [I.18],5.62,–,–,–,–,–,–,–,–,–,100%,–,–,–,–,–
"CC(c1cc(F)ccc1C1=CCCC1)N(C(=O)c1c(C(F)F)nn(C)c1F)C1CC1 (stereo not drawn) [I.25, N-{1-[2-(cyclopent-1-en-1-yl)-5-fluorophenyl]ethyl}-N-cyclopropyl-3-(difluoromethyl)-5-fluoro-1-methyl-1H-pyrazole-4-carboxamide]",–,100%,–,–,–,–,–,100%,–,100%,100%,–,–,–,–,4.34
Cn1cc(C(=O)N(Cc2ccccc2C2=CCCCC2)C2CC2)c(C(F)F)n1 [I.27],3.99,98%,–,–,–,–,–,–,88%,94%,100%,98%,–,24%,98%,–
Cn1nc(C(F)F)c(C(=O)N(Cc2ccccc2C2=CCCCC2)C2CC2)c1F [I.28],4.49,100%,–,–,–,–,–,79%,100%,94%,100%,100%,–,98%,100%,–
Cn1cc(C(=O)N(Cc2ccccc2C2=CCCCC2)C2CC2)c(C(F)F)c1 [I.30],4.46,83%,–,–,–,–,–,–,–,–,81%,78%,–,–,–,–
O=C(c1ccsc1I)N(Cc1ccccc1C1=CCCCC1)C1CC1 [I.31],5.22,–,–,–,–,–,–,–,–,–,100%,–,–,–,–,–
Cn1nc(C(F)F)c(C(=S)N(Cc2cc(Cl)ccc2C2=CCCCC2)C2CC2)c1F [I.43],5.56,80%,–,–,–,–,–,71%,78%,97%,–,89%,–,–,–,–
"Cn1nc(C(F)F)c(C(=O)N(Cc2cc(F)ccc2C2=CCCCC2)C2CC2)c1Cl [I.44, 5-chloro-N-[2-(cyclohex-1-en-1-yl)-5-fluorobenzyl]-N-cyclopropyl-3-(difluoromethyl)-1-methyl-1H-pyrazole-4-carboxamide]",–,–,–,–,–,–,–,–,81%,79%,–,–,–,–,–,4.69
Cn1cc(C(=O)N(Cc2ccccc2C2=CCCCCC2)C2CC2)c(C(F)F)n1 [I.49],4.44,100%,–,–,–,–,–,79%,81%,88%,100%,99%,–,–,–,–
Cn1cc(C(=O)N(Cc2ccccc2C2=CCCCCC2)C2CC2)c(C(F)F)c1 [I.50],4.93,100%,–,–,–,–,–,–,81%,100%,98%,99%,–,–,–,–
Cn1nc(C(F)F)c(C(=O)N(Cc2ccccc2C2=CCCCCC2)C2CC2)c1Cl [I.51],5.06,83%,–,–,–,–,–,–,88%,81%,–,96%,–,–,–,–
Cn1nc(C(F)F)c(C(=O)N(Cc2ccccc2C2=CCCCCC2)C2CC2)c1F [I.53],4.85,100%,–,–,–,–,–,79%,98%,100%,100%,100%,–,–,–,–
